Several values for one entry are separate records, joined by “and”; a condition that tells them apart may be missing. Equal entries are not always repeated.
How the values were obtained:
[1] = Photostability of a film of oily solution under an Oriel sun simulator, quantified by HPLC; assay type: physicochemical; settings: 5% by weight in Miglyol 812 oil; about 1 mg/cm^2 film; irradiated one hour, UVA=14.2 mW/cm^2, UVB=0.41 mW/cm^2; individual tests
Description: Compared photostabilities between a compound of the prior art and the compound according to the invention of Example 1:
The two products were dissolved at 5% by weight in Miglyol 812 oil. About 10 mg of oily solution are spread over 10 cm^2 onto the surface of a frosted-glass hollow disc; the amount is determined by weighing.
The films of oily solutions are irradiated for one hour using an Oriel sun simulator (UVA=14.2 mW/cm^2; UVB=0.41 mW/cm^2), and then extracted with 10 ml of ethanol containing 10% isopropanol and treated with ultrasound for 5 minutes. The quantifications of the products are performed by HPLC of the extracts.
HPLC conditions: column: UP5WOD-25QS, 250*4.6 mm, 5 μm, Interchrom; eluent: methanol (Comparative Example 1) and 96% methanol+4% water (Example 1); flow rate: 1 ml/minute; injected volume: 10 μl; detection: diode array; rt (minutes): 5.2 (Comparative Example 1) and 14.9 (Example 1).
The degrees of loss are determined by comparison of the amounts of product present in the irradiated samples and in the non-irradiated controls prepared simultaneously and treated in the same manner (average of 3 samples; S=surface area/mg solution): % loss=100*(S0-Sirr)/S0

[2] = UV absorption in ethanol; assay type: physicochemical

SMILES | % disappearance [1] | UV E1% [2] | UV εmax [2] [M⁻¹ cm⁻¹] | UV λmax [2] [nm]
CC(C)COC(=O)C(=Cc1ccc(Nc2nc(Nc3ccc(C=C(C(=O)OCC(C)C)C(=O)OCC(C)C)cc3)nc(Nc3ccc(C=C(C(=O)OCC(C)C)C(=O)OCC(C)C)cc3)n2)cc1)C(=O)OCC(C)C [Compound (prior art), 2,4,6-tris(Diisobutyl 4′-aminobenzalmalonate)-s-triazine, reference compound] | 11% and 10% and 9% |  |  | 
CC(C)(C)COC(=O)C(=Cc1ccc(Nc2nc(Nc3ccc(C=C(C(=O)OCC(C)(C)C)C(=O)OCC(C)(C)C)cc3)nc(Nc3ccc(C=C(C(=O)OCC(C)(C)C)C(=O)OCC(C)(C)C)cc3)n2)cc1)C(=O)OCC(C)(C)C [Example 1, 2,4,6-tris(dineopentyl 4′-aminobenzalmalonate)-s-triazine] | 3% and 5% and 4% | 956 | 110000 | 356
CC(C)CC(C)OC(=O)C(=Cc1ccc(Nc2nc(Nc3ccc(C=C(C(=O)OC(C)CC(C)C)C(=O)OC(C)CC(C)C)cc3)nc(Nc3ccc(C=C(C(=O)OC(C)CC(C)C)C(=O)OC(C)CC(C)C)cc3)n2)cc1)C(=O)OC(C)CC(C)C (centres unmarked) [Example 2, 2,4,6-tris(bis(1,3-dimethylbutyl) 4′-aminobenzalmalonate)-s-triazine] |  | 922 | 111000 | 353
